Residues, ends and D or L forms follow the SMILES beside them. *: point of attachment. 5FAM = O=C1OC2(c3ccc(O)cc3Oc3cc(O)ccc32)c2ccc(C(=O)*)cc21; Ahx = NCCCCCC(=O)O
Biological target: T1, Vif/EloB/C/CBFβ (UniProt P69723+Q15369)
T1 construct: Vif in the context of the Vif/EloB/C/CBFβ is full-length Vif (amino acids 1-192); co-expressing EloB1-118 and EloC17-112 from MCS1 and MCS2, respectively, from a pETDuet-1 vector (pEloBC); made in house; host or cells: E. coli BL21(DE3)
Assay: Fluorescence anisotropy of 5-FAM Cul5 peptides with Vif/EloB/C/CBFβ
Format: binding, HIV-1 Vif; human EloB/C/CBFβ
Excerpt: The dissociation constant (KD) for each interaction is provided.

In order of falling Kd:
1. CC(C)C[C@H](NC(=O)CCCCCNC(=O)c1ccc2c(c1)C(=O)OC21c2ccc(O)cc2Oc2cc(O)ccc21)C(=O)N[C@@H](CCCNC(=N)N)C(=O)N[C@@H](CCC(N)=O)C(=O)N[C@@H](CCC(=O)O)C(=O)N[C@@H](CO)C(=O)N[C@H](C(=O)N[C@H](C(=O)N[C@@H](CCCCN)C(=O)N[C@@H](CCC(N)=O)C(=O)N[C@@H](CCC(N)=O)C(=O)N[C@@H](Cc1c[nH]c2ccccc12)C(=O)O)[C@@H](C)O)C(C)C [Cul5(30-40)] ({5FAM-Ahx}-LRQESVTKQQW-OH)  16 µM
2. CC[C@H](C)[C@H](NC(=O)[C@H](CCCCN)NC(=O)[C@H](C)NC(=O)[C@@H]1CCCN1C(=O)CNC(=O)[C@H](CCCCN)NC(=O)[C@H](CC(=O)O)NC(=O)[C@H](CC(=O)O)NC(=O)[C@H](Cc1c[nH]c2ccccc12)NC(=O)[C@H](CC(C)C)NC(=O)[C@H](CS)NC(=O)[C@@H](NC(=O)[C@H](C)NC(=O)[C@H](Cc1c[nH]cn1)NC(=O)[C@@H](NC(=O)[C@H](CC(=O)O)NC(=O)[C@H](CO)NC(=O)[C@H](Cc1ccccc1)NC(=O)[C@H](CC(C)C)NC(=O)CCCCCNC(=O)c1ccc2c(c1)C(=O)OC21c2ccc(O)cc2Oc2cc(O)ccc21)C(C)C)C(C)C)C(=O)N[C@@H](Cc1c[nH]cn1)C(=O)N[C@@H](CCC(N)=O)C(=O)N[C@@H](C)C(=O)N[C@@H](CC(C)C)C(=O)O [Cul5(43-65)]  4.7 µM
3. CC(C)C[C@H](NC(=O)CCCCCNC(=O)c1ccc2c(c1)C(=O)OC21c2ccc(O)cc2Oc2cc(O)ccc21)C(=O)N[C@@H](Cc1ccccc1)C(=O)N[C@@H](CO)C(=O)N[C@@H](CC(=O)O)C(=O)N[C@H](C(=O)N[C@@H](Cc1c[nH]cn1)C(=O)N[C@@H](C)C(=O)N[C@H](C(=O)N[C@@H](CS)C(=O)N[C@@H](CC(C)C)C(=O)N[C@@H](Cc1c[nH]c2ccccc12)C(=O)N[C@@H](CC(=O)O)C(=O)O)C(C)C)C(C)C [Cul5(43-54)]  2.5 µM
4. CC(C)C[C@H](NC(=O)[C@H](CS)NC(=O)[C@@H](NC(=O)[C@H](C)NC(=O)[C@H](Cc1c[nH]cn1)NC(=O)[C@@H](NC(=O)[C@H](CC(=O)O)NC(=O)[C@H](CO)NC(=O)[C@H](Cc1ccccc1)NC(=O)[C@H](CC(C)C)NC(=O)[C@H](CC(=O)O)NC(=O)[C@H](Cc1ccccc1)NC(=O)[C@H](Cc1c[nH]c2ccccc12)NC(=O)[C@H](CCC(N)=O)NC(=O)[C@H](CCC(N)=O)NC(=O)[C@H](CCCCN)NC(=O)CCCCCNC(=O)c1ccc2c(c1)C(=O)OC21c2ccc(O)cc2Oc2cc(O)ccc21)C(C)C)C(C)C)C(=O)N[C@@H](Cc1c[nH]c2ccccc12)C(=O)O [Cul5(37-53)] ({5FAM-Ahx}-KQQWFDLFSDVHAVCLW-OH)  1.2 µM

From patent US20150268247A1, “Assay for Screening of Anti-Viral Compounds That Inhibit Specific Interaction Interfaces Between Cullin5 and an ElonginB/ElonginC/ CBF-beta/HIV-1 Vif Complex” (UNIVERSITY OF ROCHESTER, priority 2012, published 2015)
